In PMC11530130, “Peripherally restricted PICK1 inhibitor mPD5 ameliorates pain behaviors in murine inflammatory and neuropathic pain models” (JCI Insight, 2024):
“And” between values parts separate entries of the source, which are not always exact repeats. Equal values may be shown once.

Assay: Small-angle x-ray scattering (SAXS), core-shell micelle model
Format: physicochemical
Protocol: Peripherally restricted PICK1 inhibitor mPD5 ameliorates pain behaviors in murine inflammatory and neuropathic pain models.
SUPPORTING INFORMATION: Supplemental Table 1+2.
Supplemental Table 1. SAXS data collection and fitting table.
Buffer 50 mM Tris, 125 mM NaCl, pH 7.4
Extinction coefficient 11 000 M-1 cm-1
Molecular weight 1874 g/mol
Peptide concentration 0.19 - 9.37 mg/ml
SAXS data collection details
Instrument P12, Petra III, DESY [1]
Absolute calibration Water
Indirect Fourier Bayersapp.org transformations to obtain
Data rebin WillItRebin [4] […]
nmolec-hydrophilic [Å3] 2012 nmolec-hydrophobic [Å3] 377
Rtotal [Å] 22.6 (corresponding to a hydrophilic shell thickness of Dshell=10.4 Å) […]
[1] C. E. Blanchet, A. Spilotros, F. Schwemmer, M. A. Graewert, A. Kikhney, C. M. Jeffries, D. Franke, D. Mark, R. Zengerle, F.
Cipriani, S. Fiedler, M. Roessle, D. I. Svergun, J Appl Crystallogr 2015, 48, 431.
[2] S. Hansen, Journal of Applied Crystallography 2012, 45, 566.
[3] S. Hansen, Journal of Applied Crystallography 2014, 47, 1469.
[4] WillItFit MC Pedersen 2013. […]
Small Angle X-ray Scattering (SAXS).
Concentration series of mPD5 ranging from […] to 9.37 mg/mL was prepared in buffer containing 50 mM Tris-HCl (pH 7.4) and 125 mM NaCl. Samples were measured at the P12 SAXS Beamline, PetraIII, DESY, Hamburg Germany (2). Initial data processing including radial averaging and conversion of the data into absolute scaled scattering intensity, I(q), as a function of the scattering vector q, where q= 4π sin(θ)/λ (θ = half scattering angle, λ = x-ray wave length) was done using the standard software, procedures and settings at the beamline (2). The processed scattering data was merged, buffer subtracted, and binned using WillItRebin with a binning factor of 1.02. The modelling of the SAXS data was performed using a molecular constrained core-shell model for polydisperse spherical micelles. In brief, it was assumed that the peptide aggregated into polydisperse spherical micelles. Here, the hydrophobic tails form the core, and these are surrounded by the hydrophilic part (the shell) in a spherical micelle. For the modelling, total scattering lengths of 2.26e-10 cm and 2.96e-11 cm were used for the headgroups and tail, respectively. These were calculated by multiplying the […]
electrons) by the scattering length of the electron which is just the classical electron radium of 2.82 fm. For the scattering length density calculations, it was assumed that the molecular volume of the C13 alkyl chain,nmolec-hydrophobic, was 377 Å3 as estimated by Tanfords empirical formula (V = 27.4 + 26.9n!) where nC denotes the number of carbons. i.e. 13 in this case (3).
The hydrophilic headgroup,nmolec-hydrophilic, was as a first estimate assumed to have a mass density corresponding to that of a soluble protein (i.e. 1.35 g/cm3), this yielded a molecular volume of 2078 Å3. This value was then taken as a free parameter in the fits and refined to a molecular volume of ~2010 Å3 corresponding to a mass density of 1.39 g/cm3 and with very little variation over the fits to the different sample concentrations. Excess scattering length densities of the core and shell of the micelle were then calculated in relation to the scattering length density of water (9.4e10 1/cm2). Using this molecular constrained model, the volumes of the core and of the shell were coupled internally through the fitted aggregation number, Nagg and the implicit […]
The relative polydispersity, srelative was described by a Gauss function of Nagg. The Gauss was truncated at ±3s. Through the fits, this value is refined to srelative values of the aggregation number at ~30% for the highest concentrations to up to 50% for the lowest concentrations. Note, however, that this variation in the particle volume translates to about 10%-15% variation of the particle radius. A full overview of the resulting fit-parameters is provided in Supplemental Table S1. As usual a small surface roughness (typical at the order of 2Å) and a small constant background were also […]

[1] = SAXS pair-distance distribution p(r)
[2] = spherical core-shell model fit, average

## CCCCCCCCCCCCCC(=O)N(CCOCCOCCC(=O)N[C@@H](Cc1c[nH]cn1)C(=O)N[C@@H](Cc1c[nH]c2ccccc12)C(=O)N[C@@H](CC(C)C)C(=O)N[C@@H](CCCCN)C(=O)N[C@H](C(=O)O)C(C)C)CCOCCOCCC(=O)N[C@@H](Cc1c[nH]cn1)C(=O)N[C@@H](Cc1c[nH]c2ccccc12)C(=O)N[C@@H](CC(C)C)C(=O)N[C@@H](CCCCN)C(=O)N[C@H](C(=O)O)C(C)C [mPD5, myristoyl-NPEG4-(HWLKV)2]
[1]
  Dmax: approximately 50 Å
  radius of gyration (Rg): approximately 30 Å
Five samples of the series 0.19 - 9.37 mg/ml, concentration of each column not given
  Nagg, core shell model fit of single samples: 18.7 and 21.5 and 22.2 and 21.0 and 19.0
[2]
  hydrophobic core radius (Rcore): 12.2 Å
  shell thickness (Dshell): 10.4 Å
  total radius (Rtotal): 22.6 Å
